In patent US20160050895A1, “TRANSGENIC NON-HUMAN ORGANISMS WITH NON-FUNCTIONAL TSPO GENES” (AUSTRALIAN NUCLEAR SCIENCE AND TECHNOLOGY ORGANIZATION, priority 2013, published 2016):

Assays:
TSPO [1] = experiment: Radioligand membrane saturation binding with 3H-PK11195; set-up: species or system mouse; conditions: testicular and kidney tissue; TSPO-/- mice compared to TSPO+/+ mice
Method: Tissue samples were homogenised with T25 digital Ultra-Turrax homogenizer (Ika, Wilmington, N.C., USA) at speed setting 5 or 20000 rpm in approximately 45 mL of ice-cold TRIS buffer (pH 7.4), collected by centrifugation at 48000 g and the supernatant was then discarded. The procedure was then immediately repeated, this acts as an extra wash step to remove any soluble interfering substances to radioligand binding (Byland et al. 1993). Following the second centrifugation and removal ofsupernatant the samples were resuspended in approximately 50 volumes of ice-cold TRIS buffer (pH 7.4). Samples were aliquoted stored in −80° C. until required.
For TSPO knock-out mice studies, radioligand binding was performed using 3H-PK11195 racemate across a range of concentrations (FIG. 4). PK11195 is a TSPO specific probe. Total and non-specific binding was determined through 8 concentrations of 3H-PK11195 ranging from 0.56 nM to 20 nM. Non-specific binding was determined by the addition of 5 μM PK11195 to all concentrations of 3H-PK11195. […]
Organs were homogenised, washed twice in ice-cold 50 mM Tris-HCl (pH 7.4) by centrifugation at 48000×g, resuspended in 50 volumes of ice-cold 50 mM Tris-HCl, and protein concentration was determined using a BCA protein assay kit (Thermo Fisher Scientific). […] Non-specific binding was determined with 5 μM PK11195. […]

TSPO [2] = molecular target: TSPO (Mus musculus, UniProt P50637); experiment: Film autoradiography of brain sections after facial nerve axotomy; assay type: binding; set-up: from tissue; host or cells: organs of living mice (adrenal gland, kidney, heart, liver, lung, brain); conditions: TSPO+/+ animals; after facial nerve axotomy
Source text: Procedures for facial nerve axotomy were approved by the animal ethics committee at the University of Sydney. Animals were anaesthetised using Isoflurane anaesthesia. Animals were monitored for a combination of respiration, heart rate, oxygen saturation and temperature during procedures using a variety of monitoring equipment to ensure anaesthetic depth. The surgical process commenced when foot-pad or plantar reflex could no longer be elicited. The fur on the ipsilateral (right) side of the neck was shaved from the ear downwards, and the skin cleaned using 70% ethanol. A small incision (0.5-0.7 cm in length) overlying the musculature covering the stylomastoid foramen was made. The facial nerve was identified, isolated and then transected completely. The skin of incision was closed with heal-glue. […] The animals were euthanized with CO2 3 days after the axotomy and brain tissue, including facial nerve nuclei in the brain stem and cerebellum, was immediately dissected, snap-frozen in liquid nitrogen, and then stored in −80° C. freezer until the cryostat section.
A small incision (0.5-0.7 cm) in the skin 0.5 cm dorsal and lateral to the ear was made and the facial nerve transected under an operating microscope. The incision was closed with 3M™ Vetbond™ Tissue Adhesive (St. Paul, Minn., USA). […] Mice were monitored carefully and euthanized with CO2 three days after the operation. […]

CC[C@@H](C)N(C)C(=O)c1cc2ccccc2c(-c2ccccc2Cl)n1 [[^3H]PK11195]
Specific binding using [3H]PK11195 (TSPO [1]): close to zero signal | TSPO ligand binding in the injured facial nucleus (TSPO [2]): localised induction of TSPO ligand binding
